Where “and” joins values, the source holds several entries; their conditions need not be identical. Equal entries are not always repeated. ± gives the expanded uncertainty stated by the source.
Test: molar heat capacity at constant pressure
Details: 101.33 kPa, Crystal, Small (less than 1 g) adiabatic calorimetry

O.O.O.O.O.O=S(=O)([O-])[O-].[Cu+2] [copper(II) sulfate pentahydrate]
Details | molar heat capacity at constant pressure
195.86 K | 210.72 ± 1.1 J/K/mol
196.02 K | 208.8 ± 1.1 J/K/mol
196.2 K | 210.85 ± 1.1 J/K/mol
196.62 K | 212.01 ± 1.1 J/K/mol
196.78 K | 210.59 ± 1.1 J/K/mol
196.97 K | 211.56 ± 1.1 J/K/mol
197.34 K | 208.77 ± 0.81 J/K/mol
197.52 K | 212.45 ± 1.1 J/K/mol
197.54 K | 211.37 ± 1.1 J/K/mol
197.92 K | 209.01 ± 0.81 J/K/mol
198.12 K | 212.62 ± 1.1 J/K/mol
198.28 K | 211.94 ± 1.1 J/K/mol
198.86 K | 213.01 ± 1.1 J/K/mol
199.03 K | 212.84 ± 1.1 J/K/mol
199.23 K | 213.44 ± 1.1 J/K/mol
199.77 K | 213.38 ± 1.1 J/K/mol
199.89 K | 214.1 ± 1.1 J/K/mol
200 K | 210.9 ± 0.8 J/K/mol
200.02 K | 210.29 ± 0.82 J/K/mol
200.18 K | 214.5 ± 1.1 J/K/mol
200.35 K | 215.02 ± 1.1 J/K/mol
200.44 K | 211.49 ± 0.82 J/K/mol
200.5 K | 214.14 ± 1.1 J/K/mol
201.23 K | 214.77 ± 1.1 J/K/mol
201.49 K | 215.23 ± 1.1 J/K/mol
201.51 K | 215.2 ± 1.1 J/K/mol
201.96 K | 215.31 ± 1.1 J/K/mol
202.12 K | 212.11 ± 0.82 J/K/mol
202.61 K | 217.02 ± 1.1 J/K/mol
202.68 K | 216.55 ± 1.1 J/K/mol
202.83 K | 216.31 ± 1.1 J/K/mol
203.14 K | 217.49 ± 1.1 J/K/mol
203.42 K | 216.87 ± 1.1 J/K/mol
203.52 K | 214.16 ± 0.83 J/K/mol
203.74 K | 217.35 ± 1.1 J/K/mol
204.14 K | 217.62 ± 1.1 J/K/mol
204.2 K | 218.19 ± 1.1 J/K/mol
204.22 K | 214.4 ± 0.83 J/K/mol
204.87 K | 218.11 ± 1.1 J/K/mol and 218.14 ± 1.1 J/K/mol
205.53 K | 218.8 ± 1.1 J/K/mol
205.59 K | 218.93 ± 1.1 J/K/mol
205.99 K | 219.33 ± 1.1 J/K/mol
206.31 K | 219.39 ± 1.1 J/K/mol
206.33 K | 215.55 ± 0.83 J/K/mol
206.4 K | 220.52 ± 1.1 J/K/mol
206.59 K | 216.64 ± 0.83 J/K/mol
206.85 K | 220.61 ± 1.1 J/K/mol
207.02 K | 220.58 ± 1.1 J/K/mol
207.11 K | 220.48 ± 1.1 J/K/mol
207.81 K | 220.88 ± 1.1 J/K/mol
208.18 K | 221.52 ± 1.1 J/K/mol
208.23 K | 222.38 ± 1.1 J/K/mol
208.45 K | 218.01 ± 0.83 J/K/mol
208.52 K | 222.44 ± 1.1 J/K/mol
209.24 K | 222.92 ± 1.1 J/K/mol
209.37 K | 222.88 ± 1.1 J/K/mol
209.5 K | 223.33 ± 1.1 J/K/mol
209.64 K | 219.18 ± 0.84 J/K/mol
209.68 K | 223.6 ± 1.1 J/K/mol
209.96 K | 223.05 ± 1.1 J/K/mol
210 K | 219.4 ± 0.9 J/K/mol
210.49 K | 223.26 ± 1.1 J/K/mol
210.58 K | 219.18 ± 0.84 J/K/mol
210.67 K | 223.74 ± 1.1 J/K/mol
210.83 K | 223.72 ± 1.1 J/K/mol
211.38 K | 224.39 ± 1.1 J/K/mol
211.61 K | 224.89 ± 1.1 J/K/mol
212.1 K | 224.82 ± 1.1 J/K/mol
212.14 K | 225.35 ± 1.1 J/K/mol
212.68 K | 221.85 ± 0.85 J/K/mol
212.7 K | 220.97 ± 0.84 J/K/mol
212.75 K | 225.67 ± 1.1 J/K/mol
212.81 K | 225.63 ± 1.1 J/K/mol
212.95 K | 226.54 ± 1.1 J/K/mol
213.47 K | 226.67 ± 1.1 J/K/mol
213.52 K | 226.64 ± 1.1 J/K/mol
213.88 K | 226.4 ± 1.1 J/K/mol
214.25 K | 227.02 ± 1.1 J/K/mol
214.8 K | 227.75 ± 1.2 J/K/mol
214.83 K | 222.9 ± 0.85 J/K/mol
214.96 K | 227.58 ± 1.2 J/K/mol
215 K | 227.95 ± 1.1 J/K/mol
215.67 K | 228.21 ± 1.1 J/K/mol
215.69 K | 224.43 ± 0.86 J/K/mol
216.13 K | 230.23 ± 1.1 J/K/mol
216.19 K | 228.74 ± 1.1 J/K/mol
216.23 K | 229.64 ± 1.1 J/K/mol
216.38 K | 229.09 ± 1.1 J/K/mol
216.96 K | 224.83 ± 0.86 J/K/mol
217.1 K | 229.55 ± 1.1 J/K/mol
217.31 K | 230.09 ± 1.1 J/K/mol
217.46 K | 230.34 ± 1.1 J/K/mol
217.81 K | 229.9 ± 1.1 J/K/mol
218.45 K | 231.22 ± 1.2 J/K/mol
218.51 K | 230.59 ± 1.1 J/K/mol
218.69 K | 227.07 ± 0.86 J/K/mol
218.79 K | 231.49 ± 1.2 J/K/mol
219.1 K | 226.58 ± 0.86 J/K/mol
219.27 K | 231.87 ± 1.2 J/K/mol
219.52 K | 232.65 ± 1.2 J/K/mol
219.6 K | 231.9 ± 1.2 J/K/mol
219.98 K | 232.07 ± 1.2 J/K/mol
220 K | 228 ± 0.9 J/K/mol
220.12 K | 232.93 ± 1.2 J/K/mol
220.68 K | 232.63 ± 1.2 J/K/mol
220.72 K | 233.3 ± 1.2 J/K/mol
221.23 K | 229.07 ± 0.87 J/K/mol
221.39 K | 233.36 ± 1.2 J/K/mol
221.44 K | 233.44 ± 1.2 J/K/mol
221.67 K | 229.65 ± 0.87 J/K/mol
221.86 K | 234.58 ± 1.2 J/K/mol
222.09 K | 234.58 ± 1.2 J/K/mol
222.76 K | 235.19 ± 1.2 J/K/mol
222.81 K | 235.64 ± 1.2 J/K/mol and 235.01 ± 1.2 J/K/mol
223 K | 235.73 ± 1.2 J/K/mol
223.42 K | 230.15 ± 0.87 J/K/mol
223.51 K | 235.25 ± 1.2 J/K/mol
224.08 K | 236.48 ± 1.2 J/K/mol
224.14 K | 236.55 ± 1.2 J/K/mol
224.22 K | 235.98 ± 1.2 J/K/mol
224.64 K | 232.13 ± 0.87 J/K/mol
224.92 K | 236.68 ± 1.2 J/K/mol
225.28 K | 237.03 ± 1.2 J/K/mol
225.45 K | 237.85 ± 1.2 J/K/mol
225.57 K | 231.89 ± 0.87 J/K/mol
225.62 K | 237.74 ± 1.2 J/K/mol
226.1 K | 239.21 ± 1.2 J/K/mol
226.33 K | 238.26 ± 1.2 J/K/mol
226.41 K | 238.72 ± 1.2 J/K/mol
226.77 K | 238.57 ± 1.2 J/K/mol
227.03 K | 238.58 ± 1.2 J/K/mol
227.55 K | 239.68 ± 1.2 J/K/mol
227.61 K | 234.56 ± 0.88 J/K/mol
227.72 K | 233.69 ± 0.88 J/K/mol
227.73 K | 239.34 ± 1.2 J/K/mol
228.08 K | 239.61 ± 1.2 J/K/mol
228.43 K | 239.99 ± 1.2 J/K/mol
228.69 K | 240.1 ± 1.2 J/K/mol
229.13 K | 241.13 ± 1.2 J/K/mol
229.38 K | 242.74 ± 1.2 J/K/mol and 240.91 ± 1.2 J/K/mol
229.82 K | 241.69 ± 1.2 J/K/mol
229.84 K | 241.43 ± 1.2 J/K/mol
229.87 K | 235.54 ± 0.88 J/K/mol
230 K | 236.5 ± 0.9 J/K/mol
230.54 K | 237.24 ± 0.89 J/K/mol
230.59 K | 242.26 ± 1.2 J/K/mol
230.69 K | 242.63 ± 1.2 J/K/mol
230.95 K | 243.17 ± 1.2 J/K/mol
231.28 K | 242.67 ± 1.2 J/K/mol
231.97 K | 243.3 ± 1.2 J/K/mol
232 K | 244.22 ± 1.2 J/K/mol
232.02 K | 238.28 ± 0.89 J/K/mol
232.09 K | 244.43 ± 1.2 J/K/mol
232.67 K | 243.85 ± 1.2 J/K/mol
232.75 K | 246.09 ± 1.2 J/K/mol
233.23 K | 245.48 ± 1.2 J/K/mol
233.31 K | 244.86 ± 1.2 J/K/mol
233.36 K | 244.3 ± 1.2 J/K/mol

— the NIST ThermoML archive (doi:10.1016/j.jct.2017.03.026)
